{"source": "patent US9119823B2", "about": "(priority 2008, dated 2015)", "key": {"[1]": {"test_system": "nitric oxide synthase (NOS)", "conditions": "read-out: Michaelis constant (KM) for substrate; cited from earlier work"}, "[2]": {"conditions": "in vivo; cited from earlier work"}, "[3]": {"conditions": "adults; cited from earlier work"}, "[4]": {"conditions": "cited from earlier work"}, "[5]": {"conditions": "man, cited from earlier work"}, "[6]": {"conditions": "50 mg/L nitrite in the drinking water for 7 days", "text": "Enzymatic NO insufficiency is a hallmark of a number of diseases including cardiovascular disease. […] The mice were fed standard rodent chow or low NOx diet."}, "[7]": {"test_system": "lesion formation on the abdominal aorta", "conditions": "50 mg/L nitrite for 12 weeks, high fat diet", "text": "Although the LDb mice spontaneously develop atherosclerosis on normal rodent chow, the addition of a high fat diet will accelerate the process from 8 months to 12 weeks."}, "[8]": {"conditions": "low NOx diet"}, "[9]": {"test_system": "myocardial ischemia/reperfusion (I/R) injury"}, "[10]": {"test_system": "myocardial ischemia/reperfusion injury", "conditions": "eNOS-/- mice, low NOx diet, 50 mg/L nitrite, 30 minutes ischemia and 24 hour reperfusion"}, "[11]": {"conditions": "cited from earlier work; for half life of nitrite in whole blood: human whole blood"}, "[12]": {"conditions": "cited from earlier work", "remark": "listed apart in the source"}, "[13]": {"conditions": "two year study, male or female rats; cited from earlier work"}, "[14]": {"conditions": "two year study, male or female mice; cited from earlier work"}, "tissue homogenates": {"test_system": "tissue homogenates", "conditions": "at 0.5% oxygen; cited from earlier work"}, "[15]": {"conditions": "50 mg/L nitrite in the drinking water for 1 week"}}, "note": "Read-outs that look alike come from different tables or passages of the source.", "data": [{"smiles": "N=C(N)NCCC[C@H](N)C(=O)O", "note": "[L-arginine]", "values": [{"measurement": "Km", "setting": "[1]", "value": 2.9, "unit": "µM"}]}, {"smiles": "O=[N+]([O-])[O-].[Na+]", "note": "[nitrate, sodium nitrate]", "values": [{"measurement": "circulating half life of nitrate", "setting": "[2]", "value": "300 to 480", "unit": "min"}, {"measurement": "clearance of nitrate from blood to urine", "setting": "[3]", "value": "Approximately 20 ml/min"}, {"measurement": "ingested nitrate actively taken up by the salivary glands", "setting": "[4]; excreted in the saliva", "value": "≤ 25", "unit": "%"}, {"measurement": "salivary nitrate reduced to nitrite by bacteria in the mouth", "setting": "[4]; in vivo", "value": "Approximately 20%"}, {"measurement": "poisoning, total oral daily dose", "setting": "[5]; oral", "value": "> 4", "unit": "g"}, {"measurement": "dose generally fatal", "setting": "[5]", "value": "13 to 15", "unit": "g"}, {"measurement": "dose that may be fatal", "setting": "[5]", "value": 8, "unit": "g"}, {"measurement": "poisoning, single dose", "setting": "[5]", "value": "more than 1 g"}]}, {"smiles": "O=NO", "note": "[nitrite, sodium nitrite]", "values": [{"measurement": "plasma and cardiac nitroso in eNOS-/- mice", "setting": "[6]", "value": "above C57 control levels"}, {"measurement": "plasma nitrite in eNOS-/- mice", "setting": "[6]", "value": "restores"}, {"measurement": "less lesion formation on the abdominal aorta than control group", "setting": "[7]", "value": 20, "unit": "%"}, {"measurement": "plasma and heart nitroso levels", "setting": "[8]; [15]", "value": "replenished and increased"}, {"measurement": "plasma and heart steady-state nitrite and nitrate concentrations", "setting": "[8]; [15]", "value": "restored"}, {"measurement": "nitrosyl-heme products", "setting": "[8]; nitrite supplementation in the drinking water", "value": "replenished"}, {"measurement": "survival 24 hours post-myocardial infarction", "setting": "[9]; low NOx diet with nitrite-supplemented drinking water", "value": 76.9, "unit": "%"}, {"measurement": "reversal of the increased myocardial infarct size", "setting": "[9]; low NOx diet, 50 mg/L sodium nitrite ad libitum in the drinking water", "value": 57, "unit": "%"}, {"measurement": "protection from myocardial ischemia/reperfusion injury", "setting": "[10]", "value": "protected"}, {"measurement": "half-life of nitrite in the circulation", "setting": "[11]; circulation", "value": 1.83, "unit": "min"}, {"measurement": "half life of nitrite in whole blood", "setting": "[11]", "value": 1.83, "unit": "min"}, {"measurement": "half life of nitrite in whole blood", "setting": "[11]; listed as NO2^−", "value": "about 110 seconds"}, {"measurement": "fatal dose", "setting": "[12]; in humans", "value": "22 to 23", "unit": "mg/kg"}, {"measurement": "fatal dose of nitrite", "setting": "[12]; in vivo", "value": "22-23 mg/kg body weight"}, {"measurement": "carcinogenic activity", "setting": "[13]", "value": "no evidence of carcinogenic activity"}, {"measurement": "carcinogenic activity", "setting": "[14]", "value": "no evidence of carcinogenic activity"}]}, {"smiles": "O=O", "note": "[oxygen]", "values": [{"measurement": "inhibition of nitrite reduction", "setting": "tissue homogenates", "value": 80, "unit": "%"}]}]}
